Data on two compounds can be found in US20140235630A1, “COMPOSITIONS AND METHODS FOR THE TREATMENT OF PROLIFERATIVE DISEASES” (Beth Israel Deaconess Medical Center, Inc., priority 2011, published 2014).

Values joined by “and” are separate entries in the source; they are usually repeats but may differ in a detail not shown here. Equal values may be shown once.

The subject of assay [1] is patient-derived tumor with BRCA1 germline mutation 185delAG. As to the kind of experiment: Patient-derived BRCA1 185delAG breast tumor xenograft growth. In kind it is in vivo, human. As to conditions: tumor resistant to standard chemotherapy and Compound B; Compound A 30 mg/kg/day, Compound B 50 mg/kg/day. The text has this: (§1) FIGS. 6G and 6H are graphs showing the relative tumor volume (RTV) over time of tumors from breast cancer tissues from two patients, one with a 185delAG germline mutation (6G) and the other one with a 2080delA germline mutation (6H), propagated as subcutaneous implants in nude mice. Tumors were allowed to grow to a size of 5 mm when mice were randomized to treatments with either vehicle control (squares), Compound A (upside-down triangles), Compound B (triangles), or their combination (diamonds) (n=6 for each cohort, same dosing as in 6F).
(§2) All animal experiments were conducted in accordance with IACUC-approved protocols at Beth Israel Deaconess Medical Center, Boston, and at the University of Vall d'Hebron, Barcelona, Spain. […] The floxed or wild type status of Brca1, the presence of the MMTV-Cre transgene and the p53 heterozygosity were determined by PCR. […] When tumormetrics were performed, the length and width of the tumor was determined using calipers, and the tumor volume was determined (width^2×length/2). Tumor volume was used as a measure of growth and was recorded as ratio to tumor volume at diagnosis. Tumor doubling times were calculated using the functions of the best fit curves for all data points in each treatment modality. […]

The subject of assay [2] is patient-derived tumor with BRCA1 germline mutation 2080delA. The assay is described as follows: Patient-derived BRCA1 2080delA breast tumor xenograft growth. In kind it is in vivo, human. As to conditions: untreated patient; Compound A 30 mg/kg/day, Compound B 50 mg/kg/day.
Text: as §1, §2

For assay [3], the system named is BRCA1-deleted mammary tumors of MMTV-CreBRCA1^f/fp53+/− mice. The assay is described as follows: 18FDG PET-CT scanning of tumor-bearing mice. In kind it is in vivo, mouse. As to conditions: for FDG-uptake of treated tumors: Compound B-treated versus Compound A or combination. The procedure: All animal experiments were conducted in accordance with IACUC-approved protocols at Beth Israel Deaconess Medical Center, Boston, and at the University of Vall d'Hebron, Barcelona, Spain. Female MMTV-CreBRCA1^f/fp53+/− mice were obtained by breeding BRCA1 conditional knockout mice from the NIH repository (01XC8, strain C57BL/6) (Xu et al. Nat. Genet., 22: 37-43, 1999); with MMTV-Cre (Jackson Laboratory B6129-TgN(MMTV-Cre)4Mam) (Wagner et al. Nucleic Acids Res., 25: 4323-4330, 1997) and p53 knockout (Taconic Farms, P53N12-M, C57BL/6) (Donehower et al. Nature, 356: 215-221, 1992). At the time of the study, mice had been inbred for 4 years (>7 generations). The floxed or wild type status of Brca1, the presence of the MMTV-Cre transgene and the p53 heterozygosity were determined by PCR. Mice were examined for the occurrence of tumors twice weekly. When tumormetrics were performed, the length and width of the tumor was determined using calipers, and the tumor volume was determined (width^2×length/2). Tumor volume was used as a measure of growth and was recorded as ratio to tumor volume at diagnosis. Tumor doubling times were calculated using the functions of the best fit curves for all data points in each treatment modality. 5-(2,6-dimorpholinopyrimidin-4-yl)-4-(trifluoromethyl)pyridin-2-amine (Compound A) was resuspended in 5% Methylcellulose solution (Fluka) and administered via oral gavage at 50 mg/kg/day or 30 mg/kg/day. 4-[[3-[4-(cyclopropanecarbonyl)piperazine-1-carbonyl]-4-fluorophenyl]methyl]-2H-phthalazin-1-one (Compound B) was resuspended for intraperitoneal administration as described (Rottenberg et al. Proc. Natl. Acad. Sci. USA., 105: 17079-17084, 2008) and dosed at 50 mg/kg/day. For patient-derived tumor grafts consent for tumor use was obtained from patients under a protocol approved by the Vall d'Hebron Hospital Clinical Investigation Ethical Committee. Tumors were subcutaneously implanted in 6-week-old female HsdCpb:NMRI-Foxn1nu mice (Harlan Laboratories, Italy) Animals were supplemented with 1 μM estradiol (Sigma) in the drinking water. After tumor graft growth, tumor tissue was re-implanted into recipient mice, which were randomized upon implant growth.
0.3 to 0.4 mCi of fluorine-18-deoxyglucose were injected intravenously through the retroorbital vein of the anesthetized mouse. After a “washout” period of 1 hour the mouse was imaged on a NanoPET/CT (Bioscan/Mediso) scanner. The NanoPET/CT is a high-resolution small-animal multimodality scanner consisting of 12 lutetium yttrium oxyorthosilicate (LYSO) detector blocks. The blocks comprise a total of 39,780 crystals each with a dimension of 1.2×1.2×13 mm^3.
Images were acquired in three dimensions. The mice remained supine and maintained their position throughout the procedure. First, a CT scan was performed and second, a whole-body ^18F-FDG PET emission scan was acquired covering the same area as the CT scan. Counts per minute (cpm) were obtained, converted to mCi, and values were normalized for ROI volume and injected dose. In order to correct for metabolic variability between exams and to determine tumor-specific uptake changes, FDG-uptake rates were corrected for cardiac FDG-uptake (μCi injected/voxels^tumor)/(μCi/μCi injected/voxels^heart). For studies involving repeat scanning, the change in tumor-specific FDG-uptake was determined in percent (1−(FDG-uptake^post/FDG-uptake^pre)×100) Animals were housed in the Longwood SAIF satellite animal facility between scans.

Where [4] appears, read: after 2 weeks of continued treatment.
Where [5] appears, read: within 48 hours of instituting treatment.

In the case of `Nc1cc(C(F)(F)F)c(-c2cc(N3CCOCC3)nc(N3CCOCC3)n2)cn1` [Compound A, 5-(2,6-dimorpholinopyrimidin-4-yl)-4-(trifluoromethyl)pyridin-2-amine], in assay [1], the “growth of patient-derived tumor (relative tumor volume)” value was “modestly attenuated”. Further, the “sensitivity of patient-derived tumor (relative tumor volume)” value in assay [2] is “exquisite sensitivity”. The “FDG-uptake of treated tumors” value in assay [3] is reported as “strongly reduced FDG-uptake”. Besides, the “median decrease in FDG-uptake” value in assay [3] (setting [4]) is 54%; in assay [3] (setting [5]), 46.7%. Moreover, the “range of decrease in FDG-uptake” value is on record as 45.5-70.5% in assay [3] (setting [4]) and 38.1-92.3 in assay [3] (setting [5]). The “decrease in 18FDG-uptake, individual tumors of one mouse” value in assay [3] (within 48 hours after start, 50 mg/kg/day by gavage, four simultaneous tumors, 50 mg/kg/day) was 45% and 64% (2×) and 56%.

Regarding `O=C(c1cc(Cc2n[nH]c(=O)c3ccccc23)ccc1F)N1CCN(C(=O)C2CC2)CC1` [Compound B, 4-[[3-[4-(cyclopropanecarbonyl)piperazine-1-carbonyl]-4-fluorophenyl]methyl]-2H-phthalazin-1-one, reference compound], the “growth of patient-derived tumor (relative tumor volume)” value in assay [1] is “modestly attenuated”. In addition, in assay [2], the “sensitivity of patient-derived tumor (relative tumor volume)” value was “exquisite sensitivity”. Moreover, in assay [3], the “FDG-uptake of treated tumors” value is on record as “increased FDG-uptake”.
